Results on 1 molecule are retold here after US20100159042A1, “CAPSICUM BASED MILDEW KILLING SOLUTION AND METHOD OF USE” (priority 2008, published 2010).

Data set [1] concerns Powdery Mildew (PM), Uncinula Necator. The experiment in a line: First year grape vine spray test (Thompson Seedless grapes). The format is in vivo. The following applies: summary of first year test. An excerpt: The objective of this study was to test the affect of capsicum on Powdery Mildew (PM), Uncinula Necator and Downey Mildew (DM), Plasmopara Viticola and its destruction of the grape vine, leaves, flag shoots, shoots and bunches. Grape varieties are susceptible to powdery mildew and Downey mildew, Thompson's Seedless grapes was used as a test subject.
Treatment began in the beginning of the season onto fruiting bodies (Cleistothecia) and the early stage of bud growth (3 to 5 inches). Later treatment was applied again, after about 3 weeks when there was new bud growth. When the fruits were about the size of small peas, treatment is once again applied to the bunches. Treatment was also planned to be administered if symptoms of fungal infections arose.
• Kalsec brand water soluble; Code #01-050-02-01 • MasterTaste brand oil soluble; Code 500087, Lot #059618
The grape vineyard to be treated is located at 19521 American Ave., Kerman Calif.,—Thompson Seedless grapes—NW corner. (Block 5B). Vines were sprayed with standard spray equipment (bottles). The spray was applied at approximately one foot away from the plants and vines. The spray was applied at an application rate of about ½ the usual spray application from a standard tractor rig. The budding fruit was sprayed along with the leaves and new budding growth. The spray was administered from the sides only. […]

The conditions of data set [2]: cited from earlier work.

As for `COc1cc(CNC(=O)CCCC/C=C/C(C)C)ccc1O` [Capsaicin, N-vanillyl-8-methyl-6-(E)-noneamide], the “effect on growth of mildew on grape vines” value in data set [1] is given as “hinders or kills the growth of mildew”. Besides, in data set [2] (alcohol), the solubility in alcohol result was “soluble”. Moreover, the “solubility in cold water” value in data set [2] (cold water) is “insoluble”. For the same molecule, the “solubility in fats, oils and alcohol” value in data set [2] (fats, oils and alcohol) is “very soluble”. In data set [2] (water), the solubility in water result was “sparingly soluble”.
